Test system: tobacco budworm (Heliothis virescens [Fabricius])
Conditions: 0.25 millimolar on the surface of the diet, second instar larvae, five-day exposure; for Percent Mortality: compared to total number of insects infested; for Percent Growth Inhibition: inhibition of insect weight relative to untreated controls
Experimental: Candidate insecticides were evaluated for activity against the tobacco budworm (Heliothis virescens [Fabricius]) in a surface-treated diet test.
In this test one mL of molten (65-70° C.) wheat germ-based artificial diet was pipetted into each well of a four by six (24 well) multi-well plate (ID#430345-15.5 mm dia.×17.6 mm deep; Corning Costar Corp., One Alewife Center, Cambridge, Mass. 02140). The diet was allowed to cool to ambient temperature before treatment with candidate insecticide.
The robot subsequently pipetted 40 microliters of the so-prepared solution onto the surface of the diet in each of three wells in the 24 multi-well plate. The process was repeated with solutions of seven other candidate insecticides. […] Appropriate untreated controls containing only DMSO on the diet surface were also included in this test.
For evaluations of the insecticidal activity of a candidate insecticide at varying rates of application, the test was established as described above using sub-multiples of the standard 50 millimolar DMSO solution of candidate insecticide. […] In these evaluations there were six replicates of each rate of application placed on the surface of the diet in the 24 multi-well plate, for a total of four rates of application of candidate insecticide in each plate.
In each well of the test plate was placed one second instar tobacco budworm larvae, each weighing approximately five milligrams. After the larvae were placed in each well, the plate was sealed with clear polyfilm adhesive tape. The tape over each well was perforated to ensure an adequate air supply. The plates were then held in a growth chamber at 25° C. and 60% relative humidity for five days (light 14 hours/day).
After the five-day exposure period insecticidal activity for each rate of application of candidate insecticide was assessed as percent inhibition of insect weight relative to the weight of insects from untreated controls, and percent mortality when compared to the total number of insects infested.

Compound	Percent Mortality	Percent Growth Inhibition
2-{2-[3,4-dichlorophenyl)piperazinyl]ethoxy}-5-(3,3-dichloroprop-2-enyloxy)-1,3-dichlorobenzene [Compound 20]	100%	100%
O=S(=O)(c1ccc(C(F)(F)F)cc1)N1CCN(c2c(Cl)cc(OCC=C(Cl)Cl)cc2Cl)CC1 [Compound 26, 5-(3,3-dichloroprop-2-enyloxy)-1,3-dichloro-2-{4-[4-(trifluoromethyl)phenylsulfonyl]piperazinyl}benzene]	100%	100%
OC1(c2ccc(Cl)cc2)CCN(CCOc2c(Cl)cc(OCC=C(Cl)Cl)cc2Cl)CC1 [Compound 35, 1-{2-[4-(3,3-dichloroprop-2-enyloxy)-2,6-dichlorophenoxy]ethyl}-4-(4-chlorophenyl)piperidin-4-ol]	100%	100%
tert-butyl 4-{[4-(3,3-dichloroprop-2-enyloxy)-2,6-dichlorophenoxy]methyl}piperidinecarboxylate [Compound 4]	100%	100%

Reference: patent US7671201B2, “Phenyl substituted cyclic derivatives” (priority 2003, dated 2010)
